These are literature values, as cited in paper PMC7606817 (Journal of controlled release : official journal of the …, 2020).

For the series the following is noted: mice.

The structures appear in SMILES notation.

On to `[C-]#[O+]` [CO, Carbon monoxide], for which the CO elimination half-life is given as 20 min.
